The values that follow come from patent publication US20090291938A1 (TAKEDA PHARMACEUTICAL COMPANY LIMITED, priority 2007, published 2009).

Molecules are shown by their SMILES. Some results are limits rather than exact numbers.

One test concerns HT29 human colorectal adenocarcinoma cell line. As to the kind of experiment: cell proliferation assay (Cell Titer-Glo luminescent cell viability assay). It is filed as cell-based. The settings on record: HT-29, 72 h, read-out: pIC50 (converted). On the procedure:
The cell culture and proliferation assay may be carried out as follows: the HT29 human colorectal adenocarcinoma cell line (ATCC, USA) was maintained in Dulbecco's Modified Eagle's Medium (Invitrogen, USA) supplemented with 10% fetal bovine serum (JRH, USA). The cell proliferation assay was carried out with the Cell Titer-Glo luminescent cell viability assay (Promega, USA) according to the manufacture's instruction after the 72 hr treatment of the cells in the presence of the compounds. The cell viability was shown as a percentage of DMSO treated cells.
Consider `CC(C)Oc1cc(C(=O)NC2CCN(C)CC2)ccc1Nc1ncc2c(n1)N(C1CCCC1)CC(C)(C)C(=O)N2C` [Compound 122, 4-(9-cyclopentyl-5,7,7-trimethyl-6-oxo-6,7,8,9-tetrahydro-5H-pyrimido[4,5-b][1,4]diazepin-2-ylamino)-3-isopropoxy-N-(1-methylpiperidin-4-yl)benzamide], for which the IC50 was > 10 nM.

Still in this test, the particulars now being: HT-29, cell proliferative assay, HT29 cells, 72 hr treatment, values given as ranges, read-out: pIC50 (converted).
As to `C=CC1(C)CN(C2CCCC2)c2nc(Nc3ccc(C(=O)N[C@@H]4CCCNC4)cc3OC)ncc2N(C)C1=O` (stereo partly drawn) [Compound 245, 4-(9-cyclopentyl-5,7-dimethyl-6-oxo-7-vinyl-6,7,8,9-tetrahydro-5H-pyrimido[4,5-b][1,4]diazepin-2-ylamino)-3-methoxy-N-((R)-piperidin-3-yl)benzamide], the IC50 is 3.16 to 10 nM.

For `COc1cc(C(=O)NN2CCN(C)CC2)ccc1Nc1ncc2c(n1)N(C1CCCC1)CC1(CC1)C(=O)N2C` [Compound 168, 4-(9′-cyclopentyl-5′-methyl-6′-oxo-5′,6′,8′,9′-tetrahydrospiro[cyclopropane-1,7′-pyrimido[4,5-b][1,4]diazepine]-2′-ylamino)-3-methoxy-N-(4-methylpiperazin-1-yl)benzamide], the IC50 is 1 to 2.51 nM.

Regarding `COc1cc(C(=O)NC2CN(C)C2)ccc1Nc1ncc2c(n1)N(C1CCC1)CC(C)(C)C(=O)N2C` [Compound 154, 4-(9-cyclobutyl-5,7,7-trimethyl-6-oxo-6,7,8,9-tetrahydro-5H-pyrimido[4,5-b][1,4]diazepin-2-ylamino)-3-methoxy-N-(1-methylazetidin-3-yl)benzamide], the IC50 is 3.16 to 10 nM.

As for `COc1cc(C(=O)NCCN2CCNCC2)ccc1Nc1ncc2c(n1)N(C1CCCC1)CCC(=O)N2C` [Compound 55, 4-(9-cyclopentyl-5-methyl-6-oxo-6,7,8,9-tetrahydro-5H-pyrimido[4,5-b][1,4]diazepin-2-ylamino)-3-methoxy-N-(2-(piperazin-1-yl)ethyl)benzamide], the IC50 was > 10 nM.

Regarding `C=CCC1CN(C2CCCCC2)c2nc(Nc3ccc(C(=O)N[C@H]4CCCN(C)C4)cc3OC)ncc2N(C)C1=O` (stereo partly drawn) [Compound 227, 4-(7-allyl-9-cyclohexyl-5-methyl-6-oxo-6,7,8,9-tetrahydro-5H-pyrimido[4,5-b][1,4]diazepin-2-ylamino)-3-methoxy-N-((S)-1-methylpiperidin-3-yl)benzamide], the IC50 is > 10 nM.

For the molecule `COc1cc(C(=O)NC2CN(C)C2)ccc1Nc1ncc2c(n1)N(C1CCCCC1)CC1(CC1)C(=O)N2C` [Compound 173, 4-(9′-cyclohexyl-5′-methyl-6′-oxo-5′,6′,8′,9′-tetrahydrospiro[cyclopropane-1,7′-pyrimido[4,5-b][1,4]diazepine]-2′-ylamino)-3-methoxy-N-(1-methylazetidin-3-yl)benzamide], the IC50 was 1 to 2.51 nM.

`COc1cc(C(=O)NC2CN(C)C2)ccc1Nc1ncc2c(n1)N(C1CCCCC1)CC(C1CC1)C(=O)N2C` (stereo not shown) [Compound 157, 4-(9-cyclohexyl-7-cyclopropyl-5-methyl-6-oxo-6,7,8,9-tetrahydro-5H-pyrimido[4,5-b][1,4]diazepin-2-ylamino)-3-methoxy-N-(1-methylazetidin-3-yl)benzamide]: the IC50 is > 10 nM.

As to `COc1cc(C(=O)NC[C@@H]2CCCNC2)ccc1Nc1ncc2c(n1)N(C1CCCC1)CCC(=O)N2C` [Compound 63, (R)-4-(9-cyclopentyl-5-methyl-6-oxo-6,7,8,9-tetrahydro-5H-pyrimido[4,5-b][1,4]diazepin-2-ylamino)-3-methoxy-N-(piperidin-3-ylmethyl)benzamide], the IC50 was > 10 nM.

Turning to `C=C(F)CC1CN(C2CCCC2)c2nc(Nc3ccc(C(=O)NC4CCN(C)CC4)cc3OC)ncc2N(C)C1=O` (stereo not shown) [Compound 231, 4-(9-cyclopentyl-7-(2-fluoroallyl)-5-methyl-6-oxo-6,7,8,9-tetrahydro-5H-pyrimido[4,5-b][1,4]diazepin-2-ylamino)-3-methoxy-N-(1-methylpiperidin-4-yl)benzamide], the IC50 was > 10 nM.

Turning to `CCN(CC)C1CCC(NC(=O)c2ccc(Nc3ncc4c(n3)N(C3CCCC3)CCC(=O)N4C)c(OC)c2)CC1` (stereo not shown) [Compound 79, 4-(9-cyclopentyl-5-methyl-6-oxo-6,7,8,9-tetrahydro-5H-pyrimido[4,5-b][1,4]diazepin-2-ylamino)-N-(4-(diethylamino)cyclohexyl) 3-methoxybenzamide], the IC50 was > 10 nM.

For the molecule `COc1cc(C(=O)N[C@H]2CCCNC2)ccc1Nc1ncc2c(n1)N(C1CCCC1)CCC(=O)N2C` [Compound 50, (S)-4-(9-cyclopentyl-5-methyl-6-oxo-6,7,8,9-tetrahydro-5H-pyrimido[4,5-b][1,4]diazepin-2-ylamino)-3-methoxy-N-(piperidin-3-yl)benzamide], the IC50 was > 10 nM.

As for `CCN1CCC(NC(=O)c2ccc(Nc3ncc4c(n3)N(C3CCCC3)CC(C)(C)C(=O)N4C)c(OC)c2)CC1` [Compound 87, 4-(9-cyclopentyl-5,7,7-trimethyl-6-oxo-6,7,8,9-tetrahydro-5H-pyrimido[4,5-b][1,4]diazepin-2-ylamino)-N-(1-ethylpiperidin-4-yl)-3-methoxybenzamide], the IC50 was 1 to 2.51 nM.

Regarding `COc1cc(C(N)=O)ccc1Nc1ncc2c(n1)N(C1CCCC1)CC(C)(C)C(=O)N2C` [Compound 107, 4-(9-cyclopentyl-5,7,7-trimethyl-6-oxo-6,7,8,9-tetrahydro-5H-pyrimido[4,5-b][1,4]diazepin-2-ylamino)-3-methoxybenzamide], the IC50 is 3.16 to 10 nM.

For the molecule `CCCOc1cc(C(=O)NC2CCN(C)CC2)ccc1Nc1ncc2c(n1)N(C1CCCC1)CC(C)(C)C(=O)N2C` [Compound 124, 4-(9-cyclopentyl-5,7,7-trimethyl-6-oxo-6,7,8,9-tetrahydro-5H-pyrimido[4,5-b][1,4]diazepin-2-ylamino)-N-(1-methylpiperidin-4-yl)-3-propoxybenzamide], the IC50 was > 10 nM.

As for `COc1cc(C(=O)N[C@H]2CCCNC2)ccc1Nc1ncc2c(n1)N(C1CCCCC1)CC1(CC1)C(=O)N2C` [Compound 174, (S)-4-(9′-cyclohexyl-5′-methyl-6′-oxo-5′,6′,8′,9′-tetrahydrospiro[cyclopropane-1,7′-pyrimido[4,5-b][1,4]diazepine]-2′-ylamino)-3-methoxy-N-(piperidin-3-yl)benzamide], the IC50 is 1 to 2.51 nM.

As for `COc1cc(C(=O)N[C@H]2CCN(C)C2)ccc1Nc1ncc2c(n1)N(C1CCCC1)CC(C)(C)C(=O)N2C` [Compound 97, (S)-4-(9-cyclopentyl-5,7,7-trimethyl-6-oxo-6,7,8,9-tetrahydro-5H-pyrimido[4,5-b][1,4]diazepin-2-ylamino)-3-methoxy-N-(1-methylpyrrolidin-3-yl)benzamide], the IC50 is 1 to 2.51 nM.

With `COc1cc(C(=O)NC2CCCNCC2)ccc1Nc1ncc2c(n1)N(C1CCCCC1)CC(C)(C)C(=O)N2C` (stereo not shown) [Compound 119, N-(azepan-4-yl)-4-(9-cyclohexyl-5,7,7-trimethyl-6-oxo-6,7,8,9-tetrahydro-5H-pyrimido[4,5-b][1,4]diazepin-2-ylamino)-3-methoxybenzamide], the IC50 was 3.16 to 10 nM.

`COc1cc(C(=O)NC2CCN(S(C)(=O)=O)CC2)ccc1Nc1ncc2c(n1)N(C1CCCC1)CC(C)(C)C(=O)N2C` [Compound 91, 4-(9-cyclopentyl-5,7,7-trimethyl-6-oxo-6,7,8,9-tetrahydro-5H-pyrimido[4,5-b][1,4]diazepin-2-ylamino)-3-methoxy-N-(1-(methylsulfonyl)piperidin-4-yl)benzamide]: the IC50 was 1 to 2.51 nM.
